Experiments:
Settings in all cases: read-out: pI50 (converted)
Scenedesmus acutus [1] = experiment: Peroxidizing phytotoxicity against Scenedesmus acutus assessed as ethane production after 20 hr; type: functional, organism-based
Scenedesmus acutus [2] = experiment: Growth inhibition of Scenedesmus acutus assessed as changes in packed cell volume; type: functional, organism-based
Scenedesmus acutus [3] = experiment: Phytotoxicity against Scenedesmus acutus assessed as reduction in chlorophyll content by spectroscopy; type: functional, organism-based
[4] = molecular target: T1, Protoporphyrinogen IX oxidase (Zea mays, UniProt Q9FYV8); experiment: Inhibition of protoporphyrinogen IX oxidase in Zea mays cv. Anjou (maize) seedlings homogenates assessed as protoporphyrinogen IX formation by spectrophotometry
T1 sequence (Q9FYV8 whole entry): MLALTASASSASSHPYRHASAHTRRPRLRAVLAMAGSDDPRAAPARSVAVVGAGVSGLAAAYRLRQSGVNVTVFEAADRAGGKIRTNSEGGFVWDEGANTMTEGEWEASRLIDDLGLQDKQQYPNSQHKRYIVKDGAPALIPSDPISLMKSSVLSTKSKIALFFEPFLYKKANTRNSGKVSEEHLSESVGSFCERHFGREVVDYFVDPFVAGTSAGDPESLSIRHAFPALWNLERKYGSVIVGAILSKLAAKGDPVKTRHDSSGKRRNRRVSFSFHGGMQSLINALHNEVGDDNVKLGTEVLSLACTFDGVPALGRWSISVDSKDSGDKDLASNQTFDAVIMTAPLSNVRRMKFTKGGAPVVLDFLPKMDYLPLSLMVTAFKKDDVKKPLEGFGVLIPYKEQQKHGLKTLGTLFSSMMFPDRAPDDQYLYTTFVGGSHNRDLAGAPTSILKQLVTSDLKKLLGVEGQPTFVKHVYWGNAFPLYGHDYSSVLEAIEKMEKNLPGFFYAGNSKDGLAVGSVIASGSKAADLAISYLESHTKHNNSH

For `C#CCOc1cc(N2C(=O)C3=C(CCCC3)C2=O)ccc1Cl`, the IC50 (Scenedesmus acutus [1]) was 537 nM, the IC50 (Scenedesmus acutus [2]) was 100 nM and the IC50 (Scenedesmus acutus [3]) was 79.4 nM.

`C#CCOc1cc(N2C(=O)C3=C(CCCC3)C2=O)c(F)cc1Cl` gave an IC50 (Scenedesmus acutus [1]) of 141 nM, an IC50 (Scenedesmus acutus [2]) of 15.8 nM and an IC50 (Scenedesmus acutus [3]) of 15.8 nM. It also gave an IC50 [4] of 1.82 nM.

In the case of `O=C1C2=C(CCCC2)C(=O)N1c1ccc(Cl)cc1F`, the IC50 (Scenedesmus acutus [1]) is reported as 240 nM, the IC50 (Scenedesmus acutus [2]) is reported as 37.2 nM and the IC50 (Scenedesmus acutus [3]) is reported as 24.5 nM. The IC50 [4] was 3.72 nM.

`O=C(O)c1cc(N2C(=O)C3=C(CCCC3)C2=O)c(F)cc1Cl` was tested, and the IC50 (Scenedesmus acutus [1]) was 3160 nM, the IC50 (Scenedesmus acutus [2]) was 1000 nM and the IC50 (Scenedesmus acutus [3]) was 759 nM. For the same compound, the IC50 [4] was 380 nM.

`COC(=O)c1cc(N2C(=O)C3=C(CCCC3)C2=O)c(F)cc1Cl` was tested, and the IC50 (Scenedesmus acutus [1]) was 170 nM, the IC50 (Scenedesmus acutus [2]) was 67.6 nM and the IC50 (Scenedesmus acutus [3]) was 110 nM. For the same compound, the IC50 [4] was 11.2 nM.

`CCOC(=O)c1cc(N2C(=O)C3=C(CCCC3)C2=O)c(F)cc1Cl` was tested, and the IC50 (Scenedesmus acutus [1]) was 87.1 nM, the IC50 (Scenedesmus acutus [2]) was 57.5 nM and the IC50 (Scenedesmus acutus [3]) was 100 nM. The IC50 [4] was 4.17 nM.

`CCCOC(=O)c1cc(N2C(=O)C3=C(CCCC3)C2=O)c(F)cc1Cl` showed an IC50 (Scenedesmus acutus [1]) of 66.1 nM, an IC50 (Scenedesmus acutus [2]) of 33.1 nM and an IC50 (Scenedesmus acutus [3]) of 89.1 nM. The IC50 [4] was 3.89 nM.

For `CC(C)OC(=O)c1cc(N2C(=O)C3=C(CCCC3)C2=O)c(F)cc1Cl`, the IC50 (Scenedesmus acutus [1]) was 89.1 nM, the IC50 (Scenedesmus acutus [2]) was 13.8 nM and the IC50 (Scenedesmus acutus [3]) was 57.5 nM. For the same compound, the IC50 [4] was 1.38 nM.

For `CCCCOC(=O)c1cc(N2C(=O)C3=C(CCCC3)C2=O)c(F)cc1Cl`, the IC50 (Scenedesmus acutus [1]) was 141 nM, the IC50 (Scenedesmus acutus [2]) was 126 nM and the IC50 (Scenedesmus acutus [3]) was 67.6 nM. For the same compound, the IC50 [4] was 8.91 nM.

Work on `CC(C)COC(=O)c1cc(N2C(=O)C3=C(CCCC3)C2=O)c(F)cc1Cl` yielded an IC50 (Scenedesmus acutus [1]) of 407 nM, an IC50 (Scenedesmus acutus [2]) of 100 nM and an IC50 (Scenedesmus acutus [3]) of 33.1 nM. It also gave an IC50 [4] of 4.9 nM.

In the case of `CCC(C)OC(=O)c1cc(N2C(=O)C3=C(CCCC3)C2=O)c(F)cc1Cl` (configuration not stated), the IC50 (Scenedesmus acutus [1]) is reported as 74.1 nM, the IC50 (Scenedesmus acutus [2]) is reported as 60.3 nM and the IC50 (Scenedesmus acutus [3]) is reported as 24.5 nM. It also gave an IC50 [4] of 2.63 nM.

Compound `O=C(O)c1cc(N2C(=O)C3=C(CCCC3)C2=O)ccc1Cl` has an IC50 (Scenedesmus acutus [1]) greater than 100000 nM, an IC50 (Scenedesmus acutus [2]) greater than 100000 nM and an IC50 (Scenedesmus acutus [3]) greater than 100000 nM. For the same compound, the IC50 [4] was 1860 nM.

`COC(=O)c1cc(N2C(=O)C3=C(CCCC3)C2=O)ccc1Cl` was tested, and the IC50 (Scenedesmus acutus [1]) was 1620 nM, the IC50 (Scenedesmus acutus [2]) was 1780 nM and the IC50 (Scenedesmus acutus [3]) was 2000 nM. The IC50 [4] was 8.91 nM.

In the case of `CCOC(=O)c1cc(N2C(=O)C3=C(CCCC3)C2=O)ccc1Cl`, the IC50 (Scenedesmus acutus [1]) is reported as 2140 nM, the IC50 (Scenedesmus acutus [2]) is reported as 1910 nM and the IC50 (Scenedesmus acutus [3]) is reported as 1380 nM. For the same compound, the IC50 [4] was 3.72 nM.

`CCCOC(=O)c1cc(N2C(=O)C3=C(CCCC3)C2=O)ccc1Cl` gave an IC50 (Scenedesmus acutus [1]) of 661 nM, an IC50 (Scenedesmus acutus [2]) of 1120 nM and an IC50 (Scenedesmus acutus [3]) of 1860 nM. It also gave an IC50 [4] of 2.19 nM.

`CC(C)OC(=O)c1cc(N2C(=O)C3=C(CCCC3)C2=O)ccc1Cl` showed an IC50 (Scenedesmus acutus [1]) of 182 nM, an IC50 (Scenedesmus acutus [2]) of 1230 nM and an IC50 (Scenedesmus acutus [3]) of 1000 nM.

In the case of `CCCCOC(=O)c1cc(N2C(=O)C3=C(CCCC3)C2=O)ccc1Cl`, the IC50 (Scenedesmus acutus [1]) is reported as 7760 nM, the IC50 (Scenedesmus acutus [2]) is reported as 6310 nM and the IC50 (Scenedesmus acutus [3]) is reported as 3550 nM. For the same compound, the IC50 [4] was 9.12 nM.

For `CC(C)COC(=O)c1cc(N2C(=O)C3=C(CCCC3)C2=O)ccc1Cl`, the IC50 (Scenedesmus acutus [1]) was 15500 nM, the IC50 (Scenedesmus acutus [2]) was 977 nM and the IC50 (Scenedesmus acutus [3]) was 759 nM. For the same compound, the IC50 [4] was 4.79 nM.

`CCC(C)OC(=O)c1cc(N2C(=O)C3=C(CCCC3)C2=O)ccc1Cl` (configuration not stated) gave an IC50 (Scenedesmus acutus [1]) of 9770 nM, an IC50 (Scenedesmus acutus [2]) of 1100 nM and an IC50 (Scenedesmus acutus [3]) of 794 nM. The IC50 [4] was 2.51 nM.

`CC(C)(C)OC(=O)c1cc(N2C(=O)C3=C(CCCC3)C2=O)ccc1Cl` was tested, and the IC50 (Scenedesmus acutus [1]) was greater than 100000 nM, the IC50 (Scenedesmus acutus [2]) was 81300 nM and the IC50 (Scenedesmus acutus [3]) was 12900 nM. For the same compound, the IC50 [4] was 28.2 nM.

`CCCCCOC(=O)c1cc(N2C(=O)C3=C(CCCC3)C2=O)ccc1Cl` was tested, and the IC50 (Scenedesmus acutus [1]) was 5370 nM, the IC50 (Scenedesmus acutus [2]) was 4470 nM and the IC50 (Scenedesmus acutus [3]) was 9330 nM. The IC50 [4] was 7.59 nM.

`CCCCCCCCOC(=O)c1cc(N2C(=O)C3=C(CCCC3)C2=O)ccc1Cl` was tested, and the IC50 (Scenedesmus acutus [1]) was greater than 100000 nM, the IC50 (Scenedesmus acutus [2]) was greater than 100000 nM and the IC50 (Scenedesmus acutus [3]) was greater than 100000 nM. The IC50 [4] was 25.1 nM.

With `COC(=O)c1cc(Oc2ccc(C(F)(F)F)cc2Cl)ccc1[N+](=O)[O-]` [ACIFLUORFEN-METHYL] the IC50 (Scenedesmus acutus [1]) was 23.4 nM, the IC50 (Scenedesmus acutus [2]) was 70.8 nM and the IC50 (Scenedesmus acutus [3]) was 61.7 nM. The IC50 [4] was 2.19 nM.

`O=C(O)c1cc(Oc2ccc(C(F)(F)F)cc2Cl)ccc1[N+](=O)[O-]` [ACIFLUORFEN] gave an IC50 (Scenedesmus acutus [1]) of 1020 nM, an IC50 (Scenedesmus acutus [2]) of 5750 nM and an IC50 (Scenedesmus acutus [3]) of 1860 nM. The IC50 [4] was 200 nM.

`O=C1C2=C(CCCC2)C(=O)N1c1ccc(Cl)cc1` [CHLOROPHTHALIUM] gave an IC50 (Scenedesmus acutus [1]) of 912 nM, an IC50 (Scenedesmus acutus [2]) of 100 nM and an IC50 (Scenedesmus acutus [3]) of 79.4 nM.

— ChEMBL document CHEMBL3044554, “Comparison of Phytotoxicities between 4-Fluorinated and Non-fluorinated 2-Chloro-5-(3, 4, 5, 6-tetrahydrophthalimido)benzoates” (J Pestic Sci, 1999)
